Assay results reported in patent EP0538469A1, “SULFONANILIDE DERIVATIVE AND MEDICINE” (NIPPON SHINYAKU COMPANY, LIMITED, priority 1990, dated 1991).
Like-named read-outs stand apart in the source and are kept apart here. Marks after values point to notes of the source that are not given here.

Assays:
[1] = tested on: rats (SD strain, male); assay: Acute toxicity, oral, rats; assay type: in vivo; settings: observed two weeks
Method: (§1) Numbers of mice (ddY-strain, male, 6-8 weeks age) and rats (SD strain, male, 6-7 weeks age) in each group were 4 and 6, respectively.
(§2) The drug to be tested was orally administered at the dose of 10 ml/kg using an oral probe to the animals which were fasted since one day before (for 16-18 hours). After giving the drug, the animals were returned to the state where both feed and water were available and the general symptom and the dead cases, if any, were checked for two weeks. The drug was suspended in physiological saline solution containing 0.5% of methylcellulose (0.5% MC) and the suspension was given to the animals by oral route.

[2] = Acute toxicity, oral, rats; assay type: in vivo; settings: rat, in vivo, SD rats, read-out: Rats LD₅₀
Method: as §1, §2

[3] = tested on: α₁-adrenoceptors; assay: α₁-Adrenoceptor binding assay with [³H]-prazosin, brain membrane; design: species or system Rats
Method: Preparation of the receptor membrane was conducted as follows. Rats were decapitated, brain except cerebellum was excised, weighed, 40 times as much 50mM Tris-hydrochloric acid buffer (pH: 7.4) was added and the mixture was homogenized with a Polytron homogenizer and centrifuged for 20 minutes at 39,000 x g. Buffer solution was added to the precipitate and the resulting suspension was again centrifuged for 20 minutes. Then the precipitate was suspended in 40 volumes of Tris-hydrochloric acid buffer to prepare a receptor sample. The above operations were all conducted at 4°C.
α ₁-Adrenoceptor binding assay was conducted as a radioactive ligand using a [³H]-prazosin.
First, the receptor sample prepared as above was incubated in 50 mM Tris-hydrochloric acid buffer (pH 7.4) with [³H]-prazosin (0.2nM) at 25°C for 30 minutes. […] The mixture was allowed to stand at room temperature for not shorter than about 10 hours and the radioactivity was measured with a liquid scintillation counter to give a total binding.
The same reaction as above was conducted in the presence of 1 µM of prazosin as well and the resulting radioactivity was defined as nonspecific binding. […]
The inhibition activity of the test drug to the [³H]-prazosin binding was calculated by measuring the amount of the specific [ ³H] -prazosin binding in the presence of various concentrations of the drug. […]

[4] = tested on: mice (ddY-strain, male); assay: Acute toxicity, oral, mice; assay type: in vivo; settings: observed two weeks
Method: as §1, §2

[5] = tested on: male rabbits; assay: Action to intra urethral pressure and blood pressure, intravenous administration; assay type: in vivo
Method: (§3) The experiment was conducted using male rabbits of body weight of 1.4-3.1 kg under fasted condition. The animals were fixed at backs under uretrane(1.2g/kg s.c.) anesthesia, abdomen was subjected to a midline incision and bladder was exposed. In order to prevent the urine stored in the bladder on the intra urethral pressure, the urine in the bladder was compulsorily discharged out of the body. After that, a catheter was inserted into both ureters and the urine discharged from kidney was introduced outside.
(§4) The intra urethral pressure(IUP) at the urethra tract of about 0.5-1 cm distance from the neck of the bladder was measured using a microtip transducer transducer equipped with a baloon (filled with physiological saline solution) at the top end. Further, polyethylene tube was inserted into femoral artery to measure the blood pressure (BP).
The drug to be tested was injected into the vein of ear every fifteen minutes and the maximum responses of the increasing action of intra urethral pressure tract and of the increasing action of blood pressure were measured at each dose.

[6] = tested on: femoral artery; assay: Contraction of isolated femoral artery (Magnus vessel, cumulative concentration/response curves); assay type: cell-based, rabbits; settings: Oryctolagus cuniculus
Method: (§5) The experiment was conducted using female rabbits of 2 to 3.5 kg body weight.
(§6) The animals were killed by draining the blood out under anesthetizing with pentobarbital (30 mg/kg, by intravenous injection) and smooth muscle of urethra and femoral artery were excised. Each of the excised samples was placed in a Magnus vessel filled with a modified Krebs solution (at 37°C; under mixed gas) and both smooth muscle of urethra and femoral artery were suspended with 1 g load.
(§7) The drug to be tested was accumulated to contract the samples whereby the concentration/response curves were obtained wherefrom ED₅₀ (M) and pD₂ were calculated and the selectivity to urethra was determined.

[7] = tested on: male rabbits; assay: Action to intra urethral pressure and blood pressure, administration to duodenum; assay type: in vivo
Method: as §3, §4
Abdomen right above stomach was subjected to a midline incision and, after that, the drug to be tested suspended in 0.5% methyl cellulose (0.5% MC) was administered at the dose of 0.5ml/kg to the duodenum. […] The above administration to duodenum corresponded to oral administration as the administration into digestive organ in anethetized animals.

[8] = tested on: smooth muscle of urethra; assay: Contraction of isolated smooth muscle of urethra (Magnus vessel, cumulative concentration/response curves); assay type: cell-based, rabbits; settings: for EC50: Oryctolagus cuniculus
Method: as §5, §6, §7

[9] = 0.1 mg/kg i.d., 10 min after administration
[10] = 0.1 mg/kg i.d., 20 min after administration
[11] = 0.1 mg/kg i.d., 30 min after administration
[12] = 0.1 mg/kg i.d., 60 min after administration
[13] = 0.1 mg/kg i.d., 90 min after administration
[14] = 0.1 mg/kg i.d., 120 min after administration
[15] = 0.1 mg/kg i.d., 180 min after administration
[16] = 0.3 mg/kg i.d., 10 min after administration
[17] = 0.3 mg/kg i.d., 20 min after administration
[18] = 0.3 mg/kg i.d., 30 min after administration
[19] = 0.3 mg/kg i.d., 60 min after administration
[20] = 0.3 mg/kg i.d., 90 min after administration
[21] = 0.3 mg/kg i.d., 120 min after administration
[22] = 0.3 mg/kg i.d., 180 min after administration

Compound: CS(=O)(=O)Nc1ccc(F)c([C@@H](O)CN)c1.Cl [(49B), (R)-(-)-3'-(2-Amino-1-hydroxyethyl)-4'-fluoromethanesulfonanilide hydrochloride]
- Rats Dead/ Total ([1]; 500 mg/kg): 0 / 6
- Rats Dead/ Total ([1]; 1000 mg/kg): 0 / 6
- LD50 at 336 h [2]: > 1000 mg/kg
- inhibiting action to binding of [³H]-prazosin, stronger than amidephrine ([3]; relative to amidephrine): about twice
- inhibiting action to binding of [³H]-prazosin, stronger than phenylephrine ([3]; relative to phenylephrine): about five times
- Mice Dead/ Total ([4]; 1000 mg/kg): 0 / 4
- Mice Dead/ Total ([4]; 3000 mg/kg): 0 / 4
- Selectivity (B/A) ([5]; BP(ED30%↑) / IUP(ED150%↑), i.v.): 5.3
- ED (30%) ([5]; Oryctolagus cuniculus, iv, read-out: BP(B) [BP(ED30%↑)]): 0.048 mg/kg
- EC50 ([6]; read-out: ED₅₀ Femoral Artery(B)): 3.21 µM
- EC50 ([6]; read-out: pD₂ Femoral Artery(B)): 3.24 µM
- Change(%) BP [7, 9]: 2.7%
- Change(%) BP [7, 10]: 1.9%
- Change(%) BP [7, 11]: 3.3%
- Change(%) BP [7, 12]: 0.5%
- Change(%) BP [7, 13]: -5.0%
- Change(%) BP [7, 14]: -9.8%
- Change(%) BP [7, 15]: -14.9%
- Change(%) BP [7, 16]: 2.8%
- Change(%) BP [7, 17]: 4.0%
- Change(%) BP [7, 18]: 4.7%
- Change(%) BP [7, 19]: 7.9** %
- Change(%) BP [7, 20]: 6.5** %
- Change(%) BP [7, 21]: 3.3* %
- Change(%) BP [7, 22]: -10.0%
- Change(%) IUP [7, 9]: 10.5%
- Change(%) IUP [7, 10]: 11.0%
- Change(%) IUP [7, 11]: 20.7%
- Change(%) IUP [7, 12]: 29.4%
- Change(%) IUP [7, 13]: 28.9%
- Change(%) IUP [7, 14]: 30.3%
- Change(%) IUP [7, 15]: 24.1%
- Change(%) IUP [7, 16]: 21.5%
- Change(%) IUP [7, 17]: 44.2** %
- Change(%) IUP [7, 18]: 65.2* %
- Change(%) IUP [7, 19]: 84.1** %
- Change(%) IUP [7, 20]: 114.9* %
- Change(%) IUP [7, 21]: 101.5** %
- Change(%) IUP [7, 22]: 95.7** %
- dose resulting in intraurethral pressure increasing action of the same grade as known amidephrine ([7]; administration to digestive organ, relative to amidephrine dose): about one-tenth
- Selectivity (B/A) ([8]; ED₅₀ femoral artery / ED₅₀ urethra): 0.73
- EC50 ([8]; read-out: ED₅₀ Urethra(A)): 4.41 µM
- EC50 ([8]; read-out: pD₂ Urethra(A)): 4.37 µM
